According to patent US20050002859A1, “COX-2-targeted imaging agents” (Vanderbilt University, priority 2003, published 2005):
Changes are numbered by the printed parent chain. Read-outs that look alike come from different tables or passages of the source. Blank lines part the entries; values can stand above or below the molecule they belong to.

What was measured:
COX-2 [1] = target: T1, COX-2 (Homo sapiens, UniProt P35354); test: Inhibition of purified COX-2 by NSAID derivatives (species not stated); format: biochemical; details: purified COX-2
T1 sequence (P35354 18-604): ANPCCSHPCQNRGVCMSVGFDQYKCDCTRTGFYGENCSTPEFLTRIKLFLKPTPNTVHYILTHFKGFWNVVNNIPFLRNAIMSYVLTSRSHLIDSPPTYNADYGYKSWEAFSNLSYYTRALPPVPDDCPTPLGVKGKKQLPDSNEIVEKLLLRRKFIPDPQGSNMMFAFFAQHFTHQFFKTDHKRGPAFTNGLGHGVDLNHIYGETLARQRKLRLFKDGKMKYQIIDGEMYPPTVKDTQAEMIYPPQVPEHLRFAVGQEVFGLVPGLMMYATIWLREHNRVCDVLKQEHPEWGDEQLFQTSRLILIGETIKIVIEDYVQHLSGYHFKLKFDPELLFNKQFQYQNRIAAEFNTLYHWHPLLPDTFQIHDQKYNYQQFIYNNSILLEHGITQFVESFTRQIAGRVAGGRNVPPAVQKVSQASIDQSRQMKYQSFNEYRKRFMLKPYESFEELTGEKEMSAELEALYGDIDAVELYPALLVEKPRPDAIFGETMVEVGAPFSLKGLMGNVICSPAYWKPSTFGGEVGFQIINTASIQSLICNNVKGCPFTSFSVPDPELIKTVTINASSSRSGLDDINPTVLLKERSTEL
Protocol: (§1) While the TLC assay described above provides considerable information, it is labor-intensive for screening large numbers of candidate NSAID derivatives. Accordingly, as an alternative, a simplified assay can be used. Incubation conditions can be essentially as described above, except all candidate derivatives are first screened at a concentration of 1 mM with a preincubation time of 30 minutes. The substrate need not be radiolabeled, and the reaction can be stopped by the addition of 2 μL of formic acid. Product formation can be quantitated by enzyme-linked immunosorbent assay (ELISA) using commercially available kits. […] Other in vitro assay methods for screening NSAID derivatives for activity (e.g., selectivity for the COX-2 enzyme) can also be used by the skilled artisan.

COX-1 [2] = target: T2, COX-1 (Ovis aries, UniProt P05979); test: Inhibition of COX-1 by NSAID derivatives (species not stated); format: biochemical
T2 sequence (P05979 25-600): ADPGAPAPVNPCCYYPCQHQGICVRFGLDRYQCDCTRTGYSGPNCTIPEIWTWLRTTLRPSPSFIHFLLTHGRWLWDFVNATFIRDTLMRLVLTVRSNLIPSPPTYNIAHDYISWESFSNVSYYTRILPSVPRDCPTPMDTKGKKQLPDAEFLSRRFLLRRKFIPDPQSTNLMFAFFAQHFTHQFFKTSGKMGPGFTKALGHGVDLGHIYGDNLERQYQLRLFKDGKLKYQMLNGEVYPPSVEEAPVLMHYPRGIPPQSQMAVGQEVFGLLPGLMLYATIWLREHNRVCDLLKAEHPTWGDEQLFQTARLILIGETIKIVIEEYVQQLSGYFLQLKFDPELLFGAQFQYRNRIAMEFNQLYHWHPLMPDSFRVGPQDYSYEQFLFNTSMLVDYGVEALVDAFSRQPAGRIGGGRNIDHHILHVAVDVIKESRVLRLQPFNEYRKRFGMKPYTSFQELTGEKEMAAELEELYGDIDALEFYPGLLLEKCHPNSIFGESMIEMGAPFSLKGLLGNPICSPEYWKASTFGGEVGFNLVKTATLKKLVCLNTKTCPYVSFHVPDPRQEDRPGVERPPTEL
Protocol: as §1

[3] = target: T3, COX-2 activity in RAW 264.7 murine macrophage cell line (Mus musculus, UniProt Q05769); test: Inhibition of COX-2 activity (PGD2 synthesis) in activated RAW264.7 macrophages; format: cell-based
T3 construct: The macrophages were exposed to lipopolysaccharide and γ-interferon to induce COX-2; endogenous in cells
T3 sequence (Q05769 18-604): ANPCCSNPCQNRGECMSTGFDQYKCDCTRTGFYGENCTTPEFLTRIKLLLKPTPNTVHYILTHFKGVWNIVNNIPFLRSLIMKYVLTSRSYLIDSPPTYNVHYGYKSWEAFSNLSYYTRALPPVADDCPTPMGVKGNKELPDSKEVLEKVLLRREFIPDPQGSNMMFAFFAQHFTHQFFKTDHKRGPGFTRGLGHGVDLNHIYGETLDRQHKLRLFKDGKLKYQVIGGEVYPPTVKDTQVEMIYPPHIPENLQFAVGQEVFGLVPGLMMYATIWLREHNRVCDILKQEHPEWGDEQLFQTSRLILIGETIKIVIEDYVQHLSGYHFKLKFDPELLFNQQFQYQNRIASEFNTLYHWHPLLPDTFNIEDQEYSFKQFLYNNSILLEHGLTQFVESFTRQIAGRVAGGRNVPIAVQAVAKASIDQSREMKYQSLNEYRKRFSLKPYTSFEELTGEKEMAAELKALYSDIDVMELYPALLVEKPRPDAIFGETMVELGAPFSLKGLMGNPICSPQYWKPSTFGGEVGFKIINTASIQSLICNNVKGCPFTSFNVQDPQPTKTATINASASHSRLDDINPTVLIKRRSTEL
From the text: Thus, NSAID derivatives that are identified as potentially useful in the methods described herein can be further tested using, for example, the RAW264.7 murine macrophage cell line. These cells are readily available (for example, from the American Type Culture Collection, Manassas, Va., United States of America) and are easily cultured in large numbers. They normally express low levels of COX-1 and very low to undetectable levels of COX-2. Upon exposure to bacterial lipopolysaccharide (LPS), however, COX-2 levels increase dramatically over the ensuing 24 hour period, and the cells produce PGD2 and PGE2 from endogenous arachidonic acid stores (generally, ˜1 nmol/10^7 cells total PG formation). After LPS exposure, the addition of exogenous arachidonic acid results in the formation of additional PGD2 and PGE2 as a result of metabolism by the newly synthesized COX-2.
This system provides a number of approaches for testing the inhibitory potency of COX-2-selective ligands (e.g., inhibitors). In general, following LPS activation, cells can be treated for 30 minutes with the desired concentrations of candidate derivative(s) in DMSO. ^14C-arachidonic acid can be added, and the cells can be incubated for 15 minutes at 37° C. Product formation can be assessed following extraction and TLC separation of the culture medium. Alternatively, the effects of candidate derivatives on PG synthesis from endogenous arachidonic acid can be assessed by incubating cells with desired concentrations of candidate derivatives 30 minutes prior to LPS exposure. Following a 24 hour incubation, medium can be collected and extracted, and the amount of PGD2 and/or PGE2 can be assayed by gas chromatography-mass spectrometry, liquid chromatography-mass spectrometry, or ELISA.
Inhibition of COX-2 Activity in Activated RAW264.7. Protocols for COX-2 inhibition in RAW264.7 cells have been previously described (Kalgutkar et al., 1998b). Briefly, cells (6.2×10^6 cells/T25 flask) were activated with lipopolysaccharide (1 μg/mL) and γ-interferon (10 U/mL) in serum-free DMEM for 7 hours and then treated with inhibitor (0-2 μM) for 30 minutes at 37° C. Exogenous arachidonate metabolism was determined by adding [1-^14C]-arachidonate acid (20 μM) for 15 minutes at 37° C. IC50 values are the average of two independent determinations.
The macrophages were exposed to lipopolysaccharide and γ-interferon to induce COX-2 and then treated with several concentrations of Compound 355.

[4] = tested on: rat carageenan footpad edema; test: Rat carageenan footpad edema model; format: in vivo
Protocol: The first is the rat carageenan footpad model. Maximal edema is obtained in this model 3 hours after carageenan injection.

[5] = tested on: PGE2 in pouch exudate (COX-2 activity); details: cited from earlier work
[6] = tested on: serum thromboxane B2 (COX-1 activity); details: cited from earlier work
Sprague-Dawley rats = test: 14-day daily oral toxicity in Sprague-Dawley rats; format: in vivo; details: daily oral 100 mg/kg, at 14 days
gastric lesions = details: rat, in vivo, 100 mg/kg
COX-2 [7] = target: T1, COX-2; details: cited from earlier work
S516A mutant of COX-2 = target: T4, S516A mutant of COX-2 (Homo sapiens, UniProt P35354, S516A); details: cited from earlier work
T4 sequence (P35354 18-604 S516A): T1 sequence (P35354 18-604) with S499A

[8] = target: T3, COX-2 activity in RAW 264.7 murine macrophage cell line; details: LPS-activated RAW 264.7; exogenous arachidonic acid; read-out: IC50 for inhibition of PGD2 synthesis; cited from earlier work
HCA-7 colon cancer cells = details: HCA-7 cells, express high levels of COX-2; read-out: IC50 growth in soft agar; cited from earlier work
[9] = tested on: HCT-15 colon cancer cells; details: HCT-15 cells, do not express COX-2; cited from earlier work
COX-1 [10] = target: T2, COX-1; details: cited from earlier work
COX-2 [11] = target: T1, COX-2; test: biochemical
Protocol: (§2) One example of an in vitro screening method takes advantage of the fact that both human and murine recombinant COX-2 can be expressed and isolated in pure form from an Sf-9 cell expression system. Briefly, typical assays involve the incubation of COX-1 (44 nM) or COX-2 (66 nM) in a 200 μL reaction mixture containing 100 mM Tris-HCl, pH 8.0, 500 μM phenol and 50 μM ^14C-arachidonic acid (55 mCi/mmol) for 30 seconds at 37° C. […] The reaction is stopped by the addition of 200 μL of ethanol/methanol/1 M citrate, pH 4.0 (30:4:1). The extracted products are separated by thin layer chromatography (TLC), which allows quantitation of total product formation as well as assessment of product distribution. This assay is useful to define IC50 values for inhibition of either enzyme, and to determine time-dependency of inhibition. It also provides information concerning changes in products formed as a result of inhibition.
(§3) Apoenzyme was reconstituted by the addition of hematin to the assay mixtures. Human COX-2 was expressed in Sf9 insect cells by means of the pVL 1393 expression vector (BD Biosciences Pharmingen, San Diego, Calif., United States of America) and purified by ion exchange and gel filtration chromatography. […]
(§4) IC50 values for the inhibition of purified human COX-2 or ovine COX-1 by test compounds were determined by thin layer chromatography (TLC) radiography. […]

ovine COX-1 = target: T5, ovine COX-1 (Ovis aries, UniProt P05979); test: Inhibition of purified ovine COX-1, TLC assay
T5 sequence (P05979 25-600): T2 sequence (P05979 25-600)
Protocol: as §2, §3, §4

[12] = activated RAW 264.7 cells, read-out: IC50 for inhibition of PGD2 synthesis/production
[13] = Rattus norvegicus, po, maximal edema 3 hours after carageenan injection, read-out: ED50 inhibition of edema formation

Compound: COc1ccc2c(c1)c(CC(=O)O)c(C)n2C(=O)c1ccc(Cl)cc1 [indomethacin]
- ED50 ([4]; rat carageenan footpad model (Example 14), read-out: ED50): 2 mg/kg
- reduction of PGE2 levels ([5]; 2 mg/kg dose): 100%
- reduction of TXB2 levels ([6]; 2 mg/kg dose): 90%

Compound: CCCCC#CCSc1ccccc1OC(C)=O [APHS, o-(acetoxyphenyl)hept-2-ynyl sulfide]
- ED50 [4, 13]: 6 mg/kg
- toxicities by gross or histopathological evaluation (Sprague-Dawley rats): no detectable toxicities
- gastric toxicity (gastric lesions): no gastric toxicity
- selectivity for COX-2 relative to aspirin (COX-2 [7]): 100 times
- time to complete inactivation of COX-2 (COX-2 [7]): ≤ 30 min
- kinact/Ki (COX-2 [7]; irreversible inactivation of COX-2): ~3000 M⁻¹ s⁻¹
- inhibitory effect on S516A mutant of COX-2 (S516A mutant of COX-2): resistant
- IC50 [8]: 120 nM
- IC50 (HCA-7 colon cancer cells): 2000 nM
- effect on growth [9]: no effect
- reduction of PGE2 levels in pouch exudate ([5]; dose of 5 mg/kg): 95%
- reduction of pouch PGE2 levels ([5]; dose of 50 mg/kg): 100%
- effect on serum TXB2 levels ([6]; dose of 5 mg/kg): no effect
- reduction of serum TXB2 levels ([6]; dose of 50 mg/kg): 11%

Compound: CC(=O)Oc1ccccc1C(=O)O [aspirin]
- ED50 [4, 13]: 125 mg/kg
- potency against COX-1 relative to COX-2 (COX-1 [10]): 10-100 times

Compound: CSc1ccccc1OC(C)=O [o-(Acetoxyphenyl)methyl sulfide]
- inhibitory potency and selectivity for COX-2 (COX-2 [7]): moderate

The remaining lines, values ahead:

- IC50 (COX-2 [1]): 80 nM
- IC50 (COX-1 [2]): > 65000 nM
- IC50 [3, 12]: 200 nM
Compound: O=C(c1ccccc1)c1ccc2n1CCC2C(=O)NCc1ccc(F)cc1 (stereo not shown) [Compound 19, p-fluorobenzyl derivative of ketorolac amide]

- IC50 (COX-2 [1]): 50 nM
- IC50 (COX-1 [2]): > 50000 nM
- IC50 ([3]; read-out: IC50 for inhibition of COX-2 activity in RAW 264.7 macrophages): 3500 nM
Compound: COc1ccc2c(c1)c(CC(=O)NCCOC(=O)c1cc(I)cc(I)c1I)c(C)n2C(=O)c1ccc(Cl)cc1 [Compound 5]

- IC50 [3, 12]: 500 nM
- IC50 (COX-2 [11]): 103 nM
- IC50 (ovine COX-1): > 60000 nM
Compound: COc1ccc2c(c1)c(CC(=O)NCCNC(=O)c1ccc(F)cc1)c(C)n2C(=O)c1ccc(Cl)cc1 [Compound 355, N-(2-{2-[1-(4-Chloro-benzoyl)-5-methoxy-2-methyl-1H-indol-3-yl]-acetylamino}-ethyl)-4-fluoro-benzamide]

- IC50 (COX-2 [11]): 100 nM
- IC50 (ovine COX-1): > 60000 nM
Compound: COc1ccc2c(c1)c(CC(=O)Nc1ccc(F)cc1)c(C)n2C(=O)c1ccc(Cl)cc1F [Compound 360, 2-[1-(4-Chloro-2-fluoro-benzoyl)-5-methoxy-2-methyl-1H-indol-3-yl]-N-(4-fluoro-phenyl)-acetamide]
